Consider 16 compounds from ChEMBL document CHEMBL1833915, “Discovery of potent, orally bioavailable phthalazinone bradykinin B1 receptor antagonists” (J Med Chem, 2011).

Data set [1] concerns the target T1, B1 bradykinin receptor (Homo sapiens, UniProt P46663).
T1 sequence (P46663 whole entry): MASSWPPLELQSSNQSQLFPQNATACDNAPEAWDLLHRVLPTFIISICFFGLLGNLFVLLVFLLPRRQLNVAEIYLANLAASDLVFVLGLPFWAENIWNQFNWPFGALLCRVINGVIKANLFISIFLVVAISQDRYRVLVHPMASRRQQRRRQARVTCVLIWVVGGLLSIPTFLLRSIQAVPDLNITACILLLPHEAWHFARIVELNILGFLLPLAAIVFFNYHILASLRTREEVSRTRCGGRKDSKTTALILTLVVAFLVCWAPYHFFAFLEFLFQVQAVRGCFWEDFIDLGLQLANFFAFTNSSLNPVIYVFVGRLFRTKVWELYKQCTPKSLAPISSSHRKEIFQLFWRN
The data set can be described thus: Antagonist activity at human B1 receptor. It is filed as functional.

Data set [2] deals with T1, B1 bradykinin receptor. The data set can be described thus: Antagonist activity at human B1 receptor by cell-based assay. It is filed as functional.
Data set [3] concerns the target Sodium channel protein type 5 subunit alpha (Homo sapiens, UniProt Q14524). The data set can be described thus: Activity at Nav1.5 ion channel at 1 uM.
In data set [4] the target is Potassium voltage-gated channel subfamily A member 5 (Homo sapiens) (UniProt P22460). The data set can be described thus: Activity at Kv1.5 ion channel at 1 uM.
Data set [5] addresses Voltage-gated inwardly rectifying potassium channel KCNH2 (Homo sapiens, UniProt Q12809). The data set can be described thus: Inhibition of human hERG at 1 uM. In general terms: Block of hERG is tested as a sign of cardiac risk.
Data set [6] concerns the target T1, B1 bradykinin receptor. The data set can be described thus: Antagonist activity at human B1 receptor expressed in CHO cells by aequorin-based calcium flux assay. It counts as functional, cell-based. A general note: A change in cytosolic calcium serves as a functional read-out for many receptors and channels.
In data set [7] the target is T2, B1 bradykinin receptor (Oryctolagus cuniculus, UniProt P48748).
T2 sequence (P48748 whole entry): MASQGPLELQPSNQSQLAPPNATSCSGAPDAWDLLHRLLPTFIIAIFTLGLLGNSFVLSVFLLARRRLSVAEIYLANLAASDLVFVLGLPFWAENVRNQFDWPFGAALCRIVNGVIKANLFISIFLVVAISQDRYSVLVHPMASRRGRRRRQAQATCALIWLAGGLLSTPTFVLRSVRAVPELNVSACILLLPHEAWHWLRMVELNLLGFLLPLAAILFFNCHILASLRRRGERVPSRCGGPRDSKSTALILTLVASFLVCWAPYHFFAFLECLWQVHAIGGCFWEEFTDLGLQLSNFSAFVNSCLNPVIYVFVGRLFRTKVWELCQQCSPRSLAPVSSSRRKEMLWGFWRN
The data set can be described thus: Inhibition of rabbit B1 receptor by cellular calcium flux assay. It counts as functional.

The nature of data set [8]: Clearance in Sprague-Dawley rat. It is filed as ADME, organism-based. The note with it: in vivo.
Data set [9] can be described thus: Oral bioavailability in Sprague-Dawley rat. The note with it: in vivo. It counts as ADME, organism-based.
Data set [10] is described as follows: Clearance in Sprague-Dawley rat at 2 mg/kg, iv. Also noted: dose 2 mg/kg, route intravenous. It counts as ADME, organism-based. Particulars: in vivo.
Data set [11] can be described thus: Oral bioavailability in Sprague-Dawley rat at 5 mg/kg. It is filed as ADME, organism-based. Particulars: in vivo.
A short description of data set [12]: Volume of distribution at steady state in Sprague-Dawley rat at 2 mg/kg, iv. Particulars: in vivo, read-out: Vdss. It is filed as ADME, organism-based. Details: dose 2 mg/kg, route intravenous.
Data set [13] in a line: Half life in dog at 1 mg/kg, iv. It is filed as ADME, organism-based, Canis lupus familiaris. Details: dose 1 mg/kg, route intravenous. Particulars: in vivo.
The nature of data set [14]: Oral bioavailability in dog at 1 mg/kg. It is filed as ADME, organism-based, Canis lupus familiaris. The note with it: in vivo.
Data set [15] can be described thus: Half life in Sprague-Dawley rat at 2 mg/kg, iv. It is filed as ADME, organism-based. Also noted: dose 2 mg/kg, route intravenous. The note with it: in vivo.
The nature of data set [16]: Volume of distribution at steady state in dog at 1 mg/kg, iv. It is filed as ADME, organism-based, Canis lupus familiaris. Details: dose 1 mg/kg, route intravenous. The note with it: in vivo, read-out: Vdss.
Data set [17] is described as follows: Clearance in dog at 1 mg/kg, iv. It is filed as ADME, organism-based, Canis lupus familiaris. Details: dose 1 mg/kg, route intravenous. The note with it: in vivo.
A short description of data set [18]: Fraction unbound in rabbit plasma. It counts as ADME, cell-free, Oryctolagus cuniculus.
The subject of data set [19] is Oryctolagus cuniculus. The data set can be described thus: […] activity in LPS treated rabbit assessed as reversal of DAK-induced hypotension at 0.003 to 1 mg/kg, sc. It is filed as functional, organism-based.
Data set [20] concerns Oryctolagus cuniculus. The data set can be described thus: […] activity in LPS treated rabbit assessed as reversal of DAK-induced hypotension at 0.03 to 3 mg/kg, sc. It is filed as functional, organism-based.
For data set [21], the system named is Oryctolagus cuniculus. The data set can be described thus: Antihypertensive activity in sc dosed rabbit assessed as reduction in DAK-induced hypotension.

Activity calls are given as the source filed them.

Sequence of Voltage-gated inwardly rectifying potassium channel KCNH2 (Q12809 whole entry): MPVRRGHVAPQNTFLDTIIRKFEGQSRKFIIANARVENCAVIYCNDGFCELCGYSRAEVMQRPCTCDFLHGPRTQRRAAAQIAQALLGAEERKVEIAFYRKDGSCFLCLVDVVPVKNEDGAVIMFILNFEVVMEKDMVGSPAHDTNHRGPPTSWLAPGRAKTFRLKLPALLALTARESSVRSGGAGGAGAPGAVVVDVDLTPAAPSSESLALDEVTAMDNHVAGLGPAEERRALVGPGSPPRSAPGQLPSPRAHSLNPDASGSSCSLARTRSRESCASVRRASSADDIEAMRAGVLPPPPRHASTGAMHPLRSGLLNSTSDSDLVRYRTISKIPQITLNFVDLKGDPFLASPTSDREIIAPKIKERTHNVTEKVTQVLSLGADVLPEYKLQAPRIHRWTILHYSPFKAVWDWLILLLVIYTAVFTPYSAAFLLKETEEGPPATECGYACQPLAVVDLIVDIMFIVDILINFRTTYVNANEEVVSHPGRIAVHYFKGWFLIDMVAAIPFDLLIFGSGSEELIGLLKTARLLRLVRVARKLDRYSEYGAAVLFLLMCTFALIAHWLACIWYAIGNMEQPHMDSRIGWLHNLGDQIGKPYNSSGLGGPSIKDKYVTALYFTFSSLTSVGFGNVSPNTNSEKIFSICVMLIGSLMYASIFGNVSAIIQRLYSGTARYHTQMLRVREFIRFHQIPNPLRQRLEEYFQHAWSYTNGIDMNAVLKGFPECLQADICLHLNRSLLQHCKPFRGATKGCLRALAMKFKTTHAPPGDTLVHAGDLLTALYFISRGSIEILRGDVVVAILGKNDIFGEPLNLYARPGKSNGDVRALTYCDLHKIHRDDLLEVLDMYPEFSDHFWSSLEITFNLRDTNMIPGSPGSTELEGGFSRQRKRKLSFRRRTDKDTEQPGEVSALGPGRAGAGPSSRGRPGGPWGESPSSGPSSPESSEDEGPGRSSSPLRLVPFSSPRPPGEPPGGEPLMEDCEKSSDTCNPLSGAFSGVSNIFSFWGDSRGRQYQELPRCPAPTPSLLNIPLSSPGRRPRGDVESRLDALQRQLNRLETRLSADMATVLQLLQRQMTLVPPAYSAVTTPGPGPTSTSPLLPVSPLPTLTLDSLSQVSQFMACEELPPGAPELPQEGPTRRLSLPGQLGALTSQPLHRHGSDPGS
Sequence of Sodium channel protein type 5 subunit alpha (Q14524 whole entry): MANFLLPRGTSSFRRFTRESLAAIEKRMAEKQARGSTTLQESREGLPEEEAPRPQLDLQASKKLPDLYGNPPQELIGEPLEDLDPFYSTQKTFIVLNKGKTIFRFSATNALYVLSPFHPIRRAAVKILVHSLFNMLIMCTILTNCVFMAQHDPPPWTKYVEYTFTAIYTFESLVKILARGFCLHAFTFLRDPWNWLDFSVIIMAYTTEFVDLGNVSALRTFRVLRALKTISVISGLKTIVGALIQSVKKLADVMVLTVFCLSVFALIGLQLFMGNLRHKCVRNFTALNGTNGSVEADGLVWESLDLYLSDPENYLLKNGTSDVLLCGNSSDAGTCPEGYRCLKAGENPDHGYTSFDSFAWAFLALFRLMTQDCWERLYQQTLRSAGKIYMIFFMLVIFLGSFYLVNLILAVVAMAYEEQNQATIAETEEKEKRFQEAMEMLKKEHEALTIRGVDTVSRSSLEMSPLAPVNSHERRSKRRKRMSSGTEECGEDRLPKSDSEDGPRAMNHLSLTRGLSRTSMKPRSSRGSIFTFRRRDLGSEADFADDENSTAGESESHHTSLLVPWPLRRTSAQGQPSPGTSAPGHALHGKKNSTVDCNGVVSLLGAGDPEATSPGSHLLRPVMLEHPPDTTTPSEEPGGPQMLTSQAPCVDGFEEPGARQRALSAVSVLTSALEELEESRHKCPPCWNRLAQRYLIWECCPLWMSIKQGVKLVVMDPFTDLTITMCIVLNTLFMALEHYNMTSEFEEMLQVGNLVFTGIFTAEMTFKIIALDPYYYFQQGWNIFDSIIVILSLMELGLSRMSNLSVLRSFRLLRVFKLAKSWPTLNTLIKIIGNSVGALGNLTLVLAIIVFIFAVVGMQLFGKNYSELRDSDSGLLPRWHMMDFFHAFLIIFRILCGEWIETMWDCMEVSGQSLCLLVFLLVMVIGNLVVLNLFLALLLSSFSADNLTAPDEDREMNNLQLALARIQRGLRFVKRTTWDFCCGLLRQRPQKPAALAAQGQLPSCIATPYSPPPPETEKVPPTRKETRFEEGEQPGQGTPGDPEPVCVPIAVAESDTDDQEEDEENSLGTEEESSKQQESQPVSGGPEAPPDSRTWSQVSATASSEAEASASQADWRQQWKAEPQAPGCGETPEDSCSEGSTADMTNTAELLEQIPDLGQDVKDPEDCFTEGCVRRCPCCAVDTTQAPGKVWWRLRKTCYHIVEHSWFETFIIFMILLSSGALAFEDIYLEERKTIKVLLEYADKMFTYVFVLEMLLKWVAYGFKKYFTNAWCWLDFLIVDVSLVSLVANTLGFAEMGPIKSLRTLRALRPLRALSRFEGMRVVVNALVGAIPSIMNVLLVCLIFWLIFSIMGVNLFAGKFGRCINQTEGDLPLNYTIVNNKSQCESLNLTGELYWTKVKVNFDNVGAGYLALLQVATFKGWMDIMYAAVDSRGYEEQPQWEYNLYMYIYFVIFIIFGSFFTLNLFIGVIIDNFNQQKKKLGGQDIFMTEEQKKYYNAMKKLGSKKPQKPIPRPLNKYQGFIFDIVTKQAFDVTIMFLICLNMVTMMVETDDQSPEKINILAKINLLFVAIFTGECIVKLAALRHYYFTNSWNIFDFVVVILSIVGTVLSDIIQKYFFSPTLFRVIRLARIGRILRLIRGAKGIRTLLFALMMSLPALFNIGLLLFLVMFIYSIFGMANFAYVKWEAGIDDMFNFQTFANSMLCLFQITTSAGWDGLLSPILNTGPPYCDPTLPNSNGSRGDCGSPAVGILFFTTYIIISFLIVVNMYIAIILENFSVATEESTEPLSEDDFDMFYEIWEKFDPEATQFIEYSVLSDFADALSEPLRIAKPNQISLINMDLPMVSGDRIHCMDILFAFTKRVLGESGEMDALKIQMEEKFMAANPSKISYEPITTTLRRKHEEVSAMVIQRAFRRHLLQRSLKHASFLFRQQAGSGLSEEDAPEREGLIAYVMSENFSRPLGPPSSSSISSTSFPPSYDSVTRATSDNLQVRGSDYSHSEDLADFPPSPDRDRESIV
Sequence of Potassium voltage-gated channel subfamily A member 5 (Homo sapiens) (P22460 whole entry): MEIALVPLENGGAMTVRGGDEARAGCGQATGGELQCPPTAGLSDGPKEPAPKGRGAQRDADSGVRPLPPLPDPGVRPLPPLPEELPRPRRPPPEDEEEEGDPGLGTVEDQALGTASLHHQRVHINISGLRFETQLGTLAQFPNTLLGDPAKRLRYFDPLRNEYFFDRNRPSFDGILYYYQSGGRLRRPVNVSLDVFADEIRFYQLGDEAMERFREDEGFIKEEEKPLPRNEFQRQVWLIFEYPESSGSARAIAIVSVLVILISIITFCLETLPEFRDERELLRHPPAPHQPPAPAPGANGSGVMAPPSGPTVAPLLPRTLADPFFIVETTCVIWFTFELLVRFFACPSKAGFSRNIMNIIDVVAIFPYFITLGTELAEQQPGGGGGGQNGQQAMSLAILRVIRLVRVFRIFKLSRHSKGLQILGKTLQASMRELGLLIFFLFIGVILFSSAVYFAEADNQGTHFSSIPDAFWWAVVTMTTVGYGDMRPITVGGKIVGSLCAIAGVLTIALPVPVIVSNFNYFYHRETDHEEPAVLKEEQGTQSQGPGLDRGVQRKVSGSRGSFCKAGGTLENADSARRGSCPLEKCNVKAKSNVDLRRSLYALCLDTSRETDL

In general, Ki refers to a dissociation constant, usually derived from enzyme kinetics or from competition with a known ligand. Read a high Ki as a looser hold on the target. Broadly, the IC50 is the concentration that inhibits the measured activity by half. Take `O=C(CCCCC(=O)c1ccccc1)N[C@@H]1CCCc2cc(CN3CCCCC3)ccc21`: in [1], affinity was put at a Ki of 1680 nM. This compound yielded a half-maximal inhibitory concentration (IC50) in [2] of 1370 nM.

Consider `Cc1nn(-c2ccc(C(=O)N[C@@H]3CCCc4cc(CN5CCCCC5)ccc43)cc2)c(=O)c2c(F)ccc(F)c12`, for which the Ki in data set [1] stood at 3.5 nM.

In the case of `Cc1nn(-c2cccc(C(=O)N[C@@H]3CCCc4cc(CN5CCCCC5)ccc43)c2)c(=O)c2ccccc12`, in data set [1], affinity was put at a Ki of 6370 nM.

With `Cc1nn(-c2ccc(C(=O)N[C@@H]3CCCc4cc(CN5CCCCC5)ccc43)cn2)c(=O)c2c(Cl)cccc12`, the Activity entry in data set [3] and in [5] was “Not Active” throughout. In addition, the outcome in data set [4] was inactive.

`O=C(Cc1ccc(C(=O)N[C@@H]2CCCc3cc(CN4CCCCC4)ccc32)cc1)c1ccccc1`: the Ki in [1] was determined as 296 nM.

Consider `Cc1nn(-c2ccc(C(=O)N[C@@H]3CCCc4cc(CN5CCCCC5)ccc43)cn2)c(=O)c2c(F)ccc(F)c12`, for which the IC50 in [6] is 0.3 nM; in data set [7], 2.2 nM. The same compound displayed an inhibition constant (Ki) in [1] of 0.6 nM.

Turning to `O=C(N[C@@H]1CCCc2cc(CN3CCCCC3)ccc21)c1ccc(-n2cnc3ccccc3c2=O)cc1`, the Ki in [1] was found to be 614 nM.

`O=C(N[C@@H]1CCCc2cc(CN3CCCCC3)ccc21)c1ccc(-n2nc(-c3ccccc3)c3ccccc3c2=O)cc1` showed a Ki in data set [1] of 418 nM. The Ki values of the last two compounds are within 1.5-fold of each other.

For the compound `CCc1nn(-c2ccc(C(=O)N[C@@H]3CCCc4cc(CN5CCCCC5)ccc43)cc2)c(=O)c2ccccc12`, in data set [1], the Ki came to 29 nM.

For orientation: clearance means a measure of how efficiently the substance is removed, as volume per time. A lower clearance goes with inefficient removal. By bioavailability is commonly meant dose-corrected exposure relative to a reference, in per cent. Low values mean poor availability, high ones good availability. Regarding `Cc1ccc(S(=O)(=O)N2CCNC(=O)[C@H]2CC(=O)N[C@@H]2CCCc3cc(CN4CCCCC4)ccc32)cc1`, the IC50 in data set [7] was 4.1 nM. The clearance in data set [8] was 123 mL/min/kg. The same compound yielded a bioavailability in data set [9] of 6%.

Broadly, the half-life is the time needed for the level to fall by half in the phase considered. A low value points to fast loss. As for `Cc1nn(-c2ccc(C(=O)N[C@@H]3CCCc4cc(CN5CCCCC5)ccc43)cc2)c(=O)c2c(Cl)cccc12`, the values for the clearance in [10] and in data set [17] were 11.2 mL/min/kg and 19 mL/min/kg, respectively. In addition, the values for the IC50 in data set [6] and in data set [7] were 1 nM and 21.4 nM, respectively. Also, the bioavailability amounted to 90% in [11] and 60% in [14]. Besides, the Vd came to 7.85 L/kg in [12] and 10.6 L/kg in data set [16]. In addition, the half-life in data set [13] is 8.9 h; in data set [15], 10.4 h. The Ki in data set [1] was 0.9 nM.

Broadly, the fraction unbound is free concentration divided by total concentration. `Cc1nn(-c2ccc(C(=O)N[C@@H]3CCCc4cc(CN5CCCCC5)ccc43)cn2)c(=O)c2c(F)cccc12` gave a clearance in [10] of 23.5 mL/min/kg. The 50% inhibitory concentration (IC50) in data set [6] was 0.09 nM; in data set [7] it was 0.6 nM; in [21] it was 2.5 nM. In [11], this compound returned a bioavailability of 61%. Also, in [12], the Vd worked out at 6.45 L/kg. The Activity result in [3] and in data set [5] was “Not Active” each time. In addition, the outcome in [4] was inactive. The same compound gave a fraction unbound in data set [18] of 0.24. Besides, in data set [1], the Ki came out at 0.6 nM. The compound further had a half-life in [15] of 3.3 h. For the same compound, the result in [19] and in data set [20] was Active.

In turn, `O=C(N[C@@H]1CCCc2cc(CN3CCCCC3)ccc21)c1cccc(-n2cnc3ccccc3c2=O)c1` came in with a Ki in data set [1] of over 10000 nM.

In the case of `O=C(N[C@@H]1CCCc2cc(CN3CCCCC3)ccc21)c1cccc(-c2coc3ccccc3c2=O)c1`, the Ki in data set [1] came out at 64 nM.

Compound `Cc1nn(-c2ccc(C(=O)N[C@@H]3CCCc4cc(CN5CCCCC5)ccc43)cc2)c(=O)c2ccccc12` had a clearance in data set [10] of 15 mL/min/kg. The compound further returned a bioavailability in data set [11] of 51%. The Vd in [12] came to 8.09 L/kg. Besides, the Ki in data set [1] stood at 35 nM. This compound showed a half-life in [15] of 6.1 h.

The compound `Cc1nn(-c2ccc(C(=O)N[C@@H]3CCCc4cc(CN5CCCCC5)ccc43)cc2)c(=O)c2c(F)cccc12` gave an inhibition constant Ki in [1] of 1.9 nM.
